In patent publication US20260114449A1, “CONCENTRATED ANTIMICROBIAL SOLUTIONS CONTAINING SPARINGLY SOLUBLE ANTIMICROBIAL AGENTS” (Virox Technologies Inc., priority 2023, published 2026):

Experiment: Solubility of salicylic acid in concentrated solution
Assay type: physicochemical
Experimental: Solutions 18-22 consisting of a solvent (Tamisolve NxG), a sparingly soluble antimicrobial agent (salicylic acid), and an antimicrobial surfactant (Biosoft S-101 LS) were prepared and are summarized in Table 3.
Solution 42 was prepared and visually inspected at the time of preparation, after 24 hours of storage at room temperature, and after one cycle of freezing and thawing.

In the case of O=C(O)c1ccccc1O [salicylic acid, Salicylic acid], the “amount of salicylic acid effectively solubilized” value (Solution 42: Tamisolve NxG 35 wt. %, Biosoft S-101 LS 45 wt. %) is reported as 20 wt. %, the “maximum amount of salicylic acid that was solubilized” value (Table 3 solutions: Tamisolve NxG 23.54 wt. % plus Biosoft S-101 LS) is reported as 13 wt. % and the “solubility of salicylic acid relative to its solubility in water” value (in Solution 42) is reported as “about 83 times”.
